Assay results published in patent US10010614B2, “Derivatives of GLP-1 like peptides, and uses thereof” (Novo Nordisk A/S, priority 2013, dated 2018).
Read-outs that look alike come from different tables or passages of the source. Numbered stars: 1 amine (or outer) side, 2 acyl side, 3 side chain; on linkers, the order of the positions; unused ones are H or OH. Square brackets hold non-standard residues; d marks the D form. Side chains are listed from the residue outwards. Peptide text beside a SMILES is read from it. * marks the point of attachment. C22 diacid = O=C(O)CCCCCCCCCCCCCCCCCCCCC(=O)*; C20 diacid = O=C(O)CCCCCCCCCCCCCCCCCCC(=O)*; γGlu = O=C(O)[C@H](CCC(=O)[*:2])N[*:1]; εLys = N[C@@H](CCCCN[*:1])C(=O)[*:2]; Trx = NC[C@H]1CC[C@H](C(=O)O)CC1; AEEA = NCCOCCOCC(=O)O; Aib = CC(C)(N)C(=O)O

What was measured:
human GLP-1 receptor [1] = target: T1, human GLP-1 receptor (Homo sapiens, UniProt P43220); assay: In vitro potency, CRE luciferase reporter gene assay in BHK cells expressing the human GLP-1 receptor; type: cell-based; settings: whole cell reporter gene assay, 3 h incubation, no HSA, averages of at least two replicates
T1 construct: expressed in transfected cells; host or cells: membranes prepared from BHK cells (parent line BHKTS13), clone FCW467-12A
In short: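 Stably transfected BHK cells (5×10^3/well) expressing human GLP-1R with a CRE-luciferase reporter; compounds diluted in buffer with 2% ovalbumin and 0.2% Pluronic F-68, final 1×10^−7 to 1×10^−14 M. Incubated 3 h at 37 °C, 5% CO2, then luminescence read; potency from non-linear log(agonist)–response fit, mean of ≥2 replicates.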

human GLP-1 receptor [2] = target: T1, human GLP-1 receptor; assay: GLP-1 receptor binding, competitive binding assay (125I-GLP-1, SPA) on isolated membranes;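 also: test compounds added at a range of concentrations to membranes from cells expressing the human GLP-1 receptor, scored by displacement of labelled ligand, read with WGA SPA beads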
Protocol: The purpose of this example is to test the receptor binding of the GLP-1 derivatives in vitro. The receptor binding is a measure of affinity of a derivative for the human GLP-1 receptor.
In this type of assay a labelled ligand (in this case ^125I-GLP-1) is bound to the receptor. Each derivative is added in a series of concentrations to isolated membranes containing the human GLP-1 receptor and displacement of the labelled ligand is monitored. The receptor binding is reported as the concentration at which half of the labelled ligand is displaced from the receptor, the IC50 value.
The following chemicals were used in the assay: Human serum albumin (HSA) (Sigma A1653), DMEM w/o phenol red (Gibco 11880-028), Pen/strep (Invitrogen 15140-122), G418 (Invitrogen 10131-027), 1 M Hepes (Gibco 15630), EDTA (Invitrogen 15575-038), PBS (Invitrogen 14190-094), fetal calf serum (Invitrogen 16140-071), EGTA, MgCl2 (Merck 1.05832.1000), Tween 20 (Amresco 0850C335), SPA particles (wheat germ agglutinin (WGA) SPA beads, Perkin Elmer RPNQ0001), [^125I]-GLP-1]-(7-36)NH2 (produced in-house), OptiPlate™-96 (Packard 6005290).
Buffer 1 consisted of 20 mM Na-HEPES plus 10 mM EDTA and pH was adjusted to 7.4. Buffer 2 consisted of 20 mM Na-HEPES plus 0.1 mM EDTA and pH was adjusted to 7.4. Assay buffer consisted of 50 mM HEPES supplemented with 5 mM EGTA, 5 mM MgCl2, 0.005% Tween 20 and pH was adjusted to 7.4. An 8% albumin stock consisted of HSA dissolved at 8% (w/v) in assay buffer. An 0.02% albumin stock consisted of HSA dissolved at 0.02% (w/v) in assay buffer.
The cells express the human GLP-1 receptor.
The cells were grown at 5% CO2 in DMEM, 10% fetal calf serum, 1% Pen/Strep (Penicillin/Streptomycin) and 1.0 mg/ml of the selection marker G418.
To make a membrane preparation the cells were grown to approximately 80% confluence. The cells were washed twice in phosphate-buffered saline and harvested. The cells were pelleted using a brief centrifugation and the cell pellet was kept on ice. The cell pellet was homogenised with ULTRA-THURRAX™ dispersing instrument for 20-30 seconds in a suitable amount of buffer 1 (e.g., 10 ml). The homogenate was centrifuged for 15 minutes. The pellet was re-suspended (homogenised) in 10 ml buffer 2 and centrifuged. This step was repeated once more. The resulting pellet was re-suspended in buffer 2 and the protein concentration was determined. The membranes were aliquoted and stored at minus 80° C.
For the receptor binding assay in the presence of low HSA (0.005%) 50 μl of the assay buffer was added to each well of an assay plate.
For the receptor binding assay in the presence of high HSA (2%) 50 μl of the 8% albumin stock was added to each well of an assay plate.
Cell membrane aliquots were thawed and diluted to their working concentration. Fifty μl were added to each well in the assay plate.
WGA SPA beads were suspended in assay buffer at 20 mg/ml. The suspension was diluted to 10 mg/ml in assay buffer just prior to addition to the assay plate. Fifty μl were added to each well in the assay plate.
The incubation was started by adding 25 μl of 480 pM solution of [^125I]-GLP-1]-(7-36)NH2 to each well of the assay plate. A 25 μl aliquot was reserved for measuring total counts/well.
The assay plate was incubated for 2 h at 30° C.
The assay plate was centrifuged for 10 min.
The assay plate was read in a Packard TopCount NXT instrument.
The data from the TopCount instrument were transferred to GraphPad Prism software. The software averaged the values for the replicates and performed a non-linear regression. IC50 values were calculated by the software and reported in nM.

[3] = Pharmacokinetic study in minipigs (i.v.); type: in vivo; settings: male, Göttingen, minipig, plasma, iv; read-out: Terminal half-live (converted)
Protocol: The purpose of this study is to determine the protraction in vivo of the GLP-1 derivatives after i.v. administration to minipigs, i.e. the prolongation of their time in the body and thereby their time of action. This is done in a pharmacokinetic (PK) study, where the terminal half-life of the derivative in question is determined. By terminal half-life is meant the time it takes to halve a certain plasma concentration in the terminal elimination phase.
The derivatives of Examples 1-5 were dosed with 2 nmol/kg, the derivative of Example 6 was dosed with 5 nmol/kg, and the derivatives of Examples 7-9 were dosed with 15 nmol/kg.
Male Göttingen minipigs were obtained from Ellegaard Göttingen Minipigs (Dalmose, Denmark) approximately 7-14 months of age and weighing approximately 16-35 kg were used in the studies. The minipigs were housed either individually (pigs with permanent catheters) or in a group and fed restrictedly once or twice daily with SDS minipig diet (Special Diets Services, Essex, UK).
After at least 2 weeks of acclimatisation two permanent central venous catheters were implanted in vena cava caudalis or cranialis in each animal. The animals were allowed 1 week recovery after the surgery, and were then used for repeated pharmacokinetic studies with a suitable wash-out period between successive GLP-1 derivative dosings.
The GLP-1 derivatives were dissolved in 50 mM sodium phosphate, 70-145 mM sodium chloride, 0.05% tween 80, pH 7.4 to a concentration of usually from 20-60 nmol/ml.
Intravenous injections (the volume corresponding to for example 0.050-0.125 ml/kg) of the compounds were given through one catheter or through the venflon, and blood was sampled at predefined time points for up till 25 days post dosing (preferably through the other catheter or by venipuncture). Blood samples (for example 0.8 ml) were collected in EDTA buffer (8 mM) and then centrifuged at 4° C. and 1942G for 10 minutes.
Plasma was pipetted into Micronic tubes on dry ice, and kept at −20° C. until analysed for plasma concentration of the respective GLP-1 compound using LOCI. Individual plasma concentration-time profiles were analyzed by a non-compartmental pharmacokinetic method in Phoenix v. 6.2 (Pharsight Inc., Mountain View, Calif., USA), or other relevant software for PK analysis, and the resulting terminal half-lives (harmonic mean) determined.

[4] = High HSA IC50 (nM), high serum albumin (2.0% HSA final assay concentration)
[5] = Low HSA IC50 (nM), low serum albumin (max. 0.001% final assay concentration)

T1 sequence (P43220 24-463): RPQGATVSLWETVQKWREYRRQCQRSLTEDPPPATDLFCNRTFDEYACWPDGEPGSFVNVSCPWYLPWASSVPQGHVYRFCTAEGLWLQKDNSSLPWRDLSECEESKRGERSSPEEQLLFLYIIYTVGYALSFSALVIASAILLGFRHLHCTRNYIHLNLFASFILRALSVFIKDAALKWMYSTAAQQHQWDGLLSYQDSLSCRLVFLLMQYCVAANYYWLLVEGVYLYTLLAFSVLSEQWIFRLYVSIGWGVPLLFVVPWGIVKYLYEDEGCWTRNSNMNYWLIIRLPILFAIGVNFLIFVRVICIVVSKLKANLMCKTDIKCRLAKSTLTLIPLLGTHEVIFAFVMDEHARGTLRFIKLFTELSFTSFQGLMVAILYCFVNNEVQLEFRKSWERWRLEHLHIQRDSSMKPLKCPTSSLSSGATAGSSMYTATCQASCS

Row | IC50 (human GLP-1 receptor [2]; high serum albumin (2.0% HSA final assay concentration), read-out: High HSA IC50) [nM] | IC50 (human GLP-1 receptor [2]; low serum albumin (max. 0.001% final assay concentration), read-out: Low HSA IC50) [nM] | SMILES | EC50 (human GLP-1 receptor [1]) [nM] | IC50 (human GLP-1 receptor [2]; [4]) [nM] | IC50 (human GLP-1 receptor [2]; [5]) [nM] | half-life [3] [h]
1 |  |  | CC[C@H](C)[C@H](NC(=O)[C@H](Cc1ccccc1)NC(=O)[C@H](CCC(=O)O)NC(=O)[C@H](CCCNC(=N)N)NC(=O)[C@H](C)NC(=O)[C@H](C)NC(=O)[C@H](CCC(N)=O)NC(=O)[C@H](CCC(=O)O)NC(=O)[C@H](CCC(=O)O)NC(=O)[C@H](CC(C)C)NC(=O)[C@H](Cc1ccc(O)cc1)NC(=O)[C@H](CO)NC(=O)[C@H](CO)NC(=O)[C@@H](NC(=O)[C@H](CC(=O)O)NC(=O)[C@H](CO)NC(=O)[C@@H](NC(=O)[C@H](Cc1ccccc1)NC(=O)[C@@H](NC(=O)CNC(=O)[C@H](CCC(=O)O)NC(=O)C(C)(C)NC(=O)[C@@H](N)Cc1c[nH]cn1)[C@@H](C)O)[C@@H](C)O)C(C)C)C(=O)N[C@@H](C)C(=O)N[C@@H](CCCCNC(=O)COCCOCCNC(=O)COCCOCCNC(=O)CC[C@H](NC(=O)[C@H]1CC[C@H](CNC(=O)CCCCCCCCCCCCCCCCCCC(=O)O)CC1)C(=O)O)C(=O)N[C@@H](CC(C)C)C(=O)N[C@H](C(=O)N[C@@H](CCCNC(=N)N)C(=O)NCC(=O)N[C@@H](CCCNC(=N)N)C(=O)NCC(=O)NCC(=O)NCC(=O)NCC(=O)N[C@@H](CO)C(=O)N[C@@H](CCCCNC(=O)COCCOCCNC(=O)COCCOCCNC(=O)CC[C@H](NC(=O)[C@H]1CC[C@H](CNC(=O)CCCCCCCCCCCCCCCCCCC(=O)O)CC1)C(=O)O)C(=O)O)C(C)C [Example 2] (H-H[Aib]EGTFTSDVSSYLEEQAAREFIAK([AEEA-AEEA-γGlu-Trx-C20 diacid])LVRGRGGGGSK([AEEA-AEEA-γGlu-Trx-C20 diacid])-OH) | 0.036 | ≥ 1000 | 1.4 | 110
2 |  |  | CC[C@H](C)[C@H](NC(=O)[C@H](Cc1ccccc1)NC(=O)[C@H](CCC(=O)O)NC(=O)[C@H](CCCNC(=N)N)NC(=O)[C@H](C)NC(=O)[C@H](C)NC(=O)[C@H](CCC(N)=O)NC(=O)[C@H](CCC(=O)O)NC(=O)[C@H](CCC(=O)O)NC(=O)[C@H](CC(C)C)NC(=O)[C@H](Cc1ccc(O)cc1)NC(=O)[C@H](CO)NC(=O)[C@H](CO)NC(=O)[C@@H](NC(=O)[C@H](CC(=O)O)NC(=O)[C@H](CO)NC(=O)[C@@H](NC(=O)[C@H](Cc1ccccc1)NC(=O)[C@@H](NC(=O)CNC(=O)[C@H](CCC(=O)O)NC(=O)C(C)(C)NC(=O)[C@@H](N)Cc1c[nH]cn1)[C@@H](C)O)[C@@H](C)O)C(C)C)C(=O)N[C@@H](C)C(=O)N[C@@H](Cc1c[nH]c2ccccc12)C(=O)N[C@@H](CC(C)C)C(=O)N[C@H](C(=O)N[C@@H](CCCNC(=N)N)C(=O)NCC(=O)N[C@@H](CCCNC(=N)N)C(=O)NCC(=O)N[C@@H](CCCCNC(=O)COCCOCCNC(=O)COCCOCCNC(=O)CC[C@H](NC(=O)[C@H]1CC[C@H](CNC(=O)CCCCCCCCCCCCCCCCCCCCC(=O)O)CC1)C(=O)O)C(=O)NCC(=O)NCC(=O)N[C@@H](CO)C(=O)N[C@@H](CCCCNC(=O)COCCOCCNC(=O)COCCOCCNC(=O)CC[C@H](NC(=O)[C@H]1CC[C@H](CNC(=O)CCCCCCCCCCCCCCCCCCCCC(=O)O)CC1)C(=O)O)C(=O)O)C(C)C [Example 9] (H-H[Aib]EGTFTSDVSSYLEEQAAREFIAWLVRGRGK([AEEA-AEEA-γGlu-Trx-C22 diacid])GGSK([AEEA-AEEA-γGlu-Trx-C22 diacid])-OH) | 0.101 | 21 | 1.6 | 167
3 |  |  | CC[C@H](C)[C@H](NC(=O)[C@H](Cc1ccccc1)NC(=O)[C@H](CCC(=O)O)NC(=O)[C@H](CCCNC(=N)N)NC(=O)[C@H](C)NC(=O)[C@H](C)NC(=O)[C@H](CCC(N)=O)NC(=O)[C@H](CCC(=O)O)NC(=O)[C@H](CCC(=O)O)NC(=O)[C@H](CC(C)C)NC(=O)[C@H](Cc1ccc(O)cc1)NC(=O)[C@H](CCCCNC(=O)COCCOCCNC(=O)COCCOCCNC(=O)CC[C@H](NC(=O)[C@H]1CC[C@H](CNC(=O)CCCCCCCCCCCCCCCCCCC(=O)O)CC1)C(=O)O)NC(=O)[C@H](CO)NC(=O)[C@@H](NC(=O)[C@H](CC(=O)O)NC(=O)[C@H](CO)NC(=O)[C@@H](NC(=O)[C@H](Cc1ccccc1)NC(=O)[C@@H](NC(=O)CNC(=O)[C@H](CCC(=O)O)NC(=O)C(C)(C)NC(=O)[C@@H](N)Cc1c[nH]cn1)[C@@H](C)O)[C@@H](C)O)C(C)C)C(=O)N[C@@H](C)C(=O)N[C@@H](Cc1c[nH]c2ccccc12)C(=O)N[C@@H](CC(C)C)C(=O)N[C@H](C(=O)N[C@@H](CCCNC(=N)N)C(=O)NCC(=O)N[C@@H](CCCNC(=N)N)C(=O)NCC(=O)NCC(=O)NCC(=O)NCC(=O)N[C@@H](CO)C(=O)N[C@@H](CCCCNC(=O)COCCOCCNC(=O)COCCOCCNC(=O)CC[C@H](NC(=O)[C@H]1CC[C@H](CNC(=O)CCCCCCCCCCCCCCCCCCC(=O)O)CC1)C(=O)O)C(=O)O)C(C)C [Example 6] (H-H[Aib]EGTFTSDVSK([AEEA-AEEA-γGlu-Trx-C20 diacid])YLEEQAAREFIAWLVRGRGGGGSK([AEEA-AEEA-γGlu-Trx-C20 diacid])-OH) | 0.093 | ≥ 1000 | 1 | 99
4 | 383 | 0.43 | CC[C@H](C)[C@H](NC(=O)[C@H](Cc1ccccc1)NC(=O)[C@H](CCCCNC(=O)[C@@H](N)CCCCNC(=O)[C@@H](N)CCCCNC(=O)CC[C@H](NC(=O)CCCCCCCCCCCCCCCCCCC(=O)O)C(=O)O)NC(=O)[C@H](CCCNC(=N)N)NC(=O)[C@H](C)NC(=O)[C@H](C)NC(=O)[C@H](CCC(N)=O)NC(=O)[C@H](CCC(=O)O)NC(=O)[C@H](CCC(=O)O)NC(=O)[C@H](CC(C)C)NC(=O)[C@H](Cc1ccc(O)cc1)NC(=O)[C@H](CO)NC(=O)[C@H](CO)NC(=O)[C@@H](NC(=O)[C@H](CC(=O)O)NC(=O)[C@H](CO)NC(=O)[C@@H](NC(=O)[C@H](Cc1ccccc1)NC(=O)[C@@H](NC(=O)CNC(=O)[C@H](CCC(=O)O)NC(=O)C(C)(C)NC(=O)[C@@H](N)Cc1c[nH]cn1)[C@@H](C)O)[C@@H](C)O)C(C)C)C(=O)N[C@@H](C)C(=O)N[C@@H](Cc1c[nH]c2ccccc12)C(=O)N[C@@H](CC(C)C)C(=O)N[C@H](C(=O)N[C@@H](CCCNC(=N)N)C(=O)NCC(=O)N[C@@H](CCCNC(=N)N)C(=O)NCC(=O)NCC(=O)NCC(=O)NCC(=O)N[C@@H](CO)C(=O)N[C@@H](CCCCNC(=O)[C@@H](N)CCCCNC(=O)[C@@H](N)CCCCNC(=O)CC[C@H](NC(=O)CCCCCCCCCCCCCCCCCCC(=O)O)C(=O)O)C(=O)O)C(C)C [Example 8, N{Epsilon-27}-[(2S)-2-amino-6-[[(2S)-2-amino-6-[[(4S)-4-carboxy-4-(19-carboxynonadecanoylamino)butanoyl]amino]hexanoyl]amino]hexanoyl]-[Aib8,Glu22,Arg26,Lys27,Arg34]-GLP-1-(7-37)-peptidyl-Gly-Gly-Gly-Ser-N{Epsilon}[(2S)-2-amino-6-[[(2S)-2-amino-6-[[(4S)-4-carboxy-4-(19-carboxynonadecanoylamino)butanoyl]amino]hexanoyl]amino]hexanoyl]Lys] (H-H[Aib]EGTFTSDVSSYLEEQAARK([εLys-εLys-γGlu-C20 diacid])FIAWLVRGRGGGGSK([εLys-εLys-γGlu-C20 diacid])-OH) | 0.26 |  |  | 137
